Where a SMILES comes first, the peptide text is derived from it. [ ]: non-standard residue; d: D form. Phe(4-NO2) = N[C@@H](Cc1ccc([N+](=O)[O-])cc1)C(=O)O; Bpa = N[C@@H](Cc1ccc(C(=O)c2ccccc2)cc1)C(=O)O
Legend:
[1] = target: T1, HIF-1α PAS-B domain (Homo sapiens, UniProt Q16665); experiment: MST binding to the PAS-B domain of HIF-1α; conditions: MST; for Kd: mean ± SEM, n = 2 (n = 1 for most C1 analogues, n = 3 in Figure S2), read-out: KD for HIF-1α PAS-B
T1 construct: made in house
Protocol: (§1) All reagents were purchased from Fisher Scientific or Sigma Aldrich UK unless specified otherwise.
(§2) Restriction enzymes and microbiology reagents were purchased from New England Biolabs Inc., Fisher Scientific (UK) or Promega (UK) and were used as directed by the manufacturer. Primers and oligonucleotides were synthesised by Integrated DNA Technologies (UK). DNA sequencing was carried out by Eurofins MWG Operon (Germany).
(§3) Construction of the RTHS and SICLOPPS library, screening, purification of recombinant HIF proteins, and the PLA was conducted as previously described in Miranda et al., J. Am. Chem. Soc., 2013, 135(28); […]
(§4) Protein labelling with MST dye
(§5) Protein was buffer exchanged from storage buffer into labelling buffer (0.1 M NaHCO3, pH 8.5) using a PD spintrap G-25 column (GE healthcare). The protein concentration was then adjusted to 20 µM.
(§6) The commercially sourced MST dye (NanoTemper) was prepared as a 470 µM solution in DMSO, which was then further diluted to 60 µM using labelling buffer. To the protein solution was added an equal volume of dye solution, and the labelling reaction was left for 1 hour in the dark at room temperature.
(§7) The labelled protein was separated from unreacted dye by elution through a PD minitrap G-25 column (GE healthcare). Labelled protein was then aliquoted and stored at -80 °C. Extent of labelling was measured by the absorbance obtained using the UV-vis mode on a NanoDrop ND-1000 Spectrophotometer (NanoDrop Technologies, USA).
(§8) Labelled protein was thawed on ice and diluted to 50 nM in assay buffer containing 50 mM Tris pH 8.0, 150 mM NaCl, 5% (v/v) glycerol, 1 mM TCEP and 0.05% TWEEN-20. The protein solution was then centrifuged at 12000 rpm for 15 minutes at 4 °C and left on ice. Compounds were prepared and serially diluted in DMSO at 10x assay concentration, before diluting to 2x assay concentration in assay buffer.
(§9) The 2x compound solutions were then mixed 1:1 (v/v) with 50 nM labelled protein solution and left to incubate for 1 hour at room temperature. Solutions were then loaded into Monolith NT.115 Premium Capillaries (NanoTemper) and placed in the sample tray. MST experiments were carried out

[2] = target: T2, HIF-2α PAS-B domain (Homo sapiens, UniProt Q99814); experiment: MST binding to the PAS-B domain of HIF-2α; conditions: MST; for Kd: mean (n = 2) ± SEM
T2 construct: made in house
T2 sequence (Q99814 240-350 limits assumed): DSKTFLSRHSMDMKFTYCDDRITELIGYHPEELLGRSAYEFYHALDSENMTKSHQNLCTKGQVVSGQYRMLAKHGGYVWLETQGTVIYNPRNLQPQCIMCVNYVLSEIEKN
Protocol: as §1, §2, §3, §4, §5, §6, §7, §8, §9

[3] = test system: HIF-driven expression of YFP in T-REx-293 reporter cell line; experiment: HRE-YFP reporter assay in hypoxia; format: cell-based, human; conditions: T-Rex-293 HRE-YFP reporter
Description: Following in vitro characterization and optimization of binding, we next assessed the effect of our cyclic peptides in mammalian cells. A cell line with a stably integrated reporter was constructed, in which the expression of yellow fluorescent protein (YFP) was placed under the control of a HRE. Thus, hypoxia would be expected to increase YFP expression (and subsequent fluorescence) in these cells, whereas treatment with a cell-permeable HIF inhibitor would be expected to reduce this fluorescence signal. A fusion cassette was designed containing the YFP gene preceded by three copies of the HRE sequence. This cassette was stably integrated into T-REx-293 cells as previously described.[12] […] The effect of this compound on the viability of T-Rex-293 was assessed with no effect observed at doses up to 75 μM (Figure S9a). […] It should be noted that the relative activity of each compound in this assay will be a combination of its cell permeability and HIF-inhibiting activity. […] We therefore continued to further characterize the cell activity of the 4-iodo-phenylalanine derivative. […]
Generation of HRE-eYFP integrated cell line
The Flp-In System (Fisher) was used to generate a constitutive expression cell line that expresses eYFP under the control of the VEGF HRE. The coding sequence of the yellow fluorescent protein (eYFP) was cloned downstream of the VEGF HRE sequence in the pcDNA5 plasmid, such that the entire cassette was under the regulation of a Tet-On gene expression system. The plasmid was transfected into a human embryonic kidney cell line (Flp-In™-293) and integrated using the manufacturer’s protocol.
Activity Assessment using Flp-In-HRE-eYFP cell line
The Flp-In-HRE-eYFP cells were plated on 24-well plates at 80% confluency and incubated overnight under normoxic conditions. The cells were then treated with different concentrations of compound and incubated for 18 hours under hypoxic conditions. After treatment, the cells were washed with PBS and lysed to extract the total cellular protein. The cell extract was cold centrifuged for 20 minutes at 14,000 RPM. An equal amount of the supernatant from each treatment was plated on a 96-well plate, and the emission of eYFP was measured using a microplate reader. […]

[4] = test system: RCC associated with VHL disease; set-up: method as in PMID 34453144; conditions: phase 2 clinical trial, all partial responses; cited from earlier work
[5] = test system: CAIX and VEGF genes in MCF-7 cells; experiment: qPCR of hypoxia-response genes in MCF-7 cells; format: cell-based; conditions: hypoxic MCF-7 cells, 2 μM
Protocol: (§10) The effect of our lead inhibitor on hypoxia-response signaling was measured by qPCR in cancer cell lines. Cells were treated with either 2 μM of an analogue of the HIF-2-specific inhibitor belzutifan, PT2399 (control), or 50 μM of cyclo-CRLII(4-iodo)F, incubated in hypoxia for […], and the levels of the hypoxia-response genes CAIX([41],[42]) and VEGF([43]) were measured by qPCR. We observed a 51% drop in CAIX transcription and a 43% drop in VEGF transcription in hypoxic MCF-7 (breast cancer) cells treated with 50 μM of cyclo-CRLII(4-iodo)F versus hypoxic MCF-7 cells treated with DMSO only (Figure 6e). […] We also observed a 49% drop in CAIX expression in hypoxic HeLa (cervical cancer) cells treated with cyclo-CRLII(4-iodo)F (Figure S9b). […] We observed a 35% drop in HIF-2-driven VEGF transcription in 786-O cells treated with 50 μM of cyclo-CRLII(4-iodo)F compared to a 50% decrease in 786-O cells treated with PT2399. […]
(§11) Realtime PCR (qPCR) Assay
(§12) Cells were plated on 6cm dishes at 80% confluency and incubated overnight under normoxic conditions. The cells were then treated with compound and incubated for 18 hours in hypoxic conditions. After treatment, the cells were washed with PBS and lysed under hypoxic conditions. The total RNA was extracted from the cells using a commercial RNA extraction kit (Fisher Scientific) following the manufacturer's instructions. A commercial reverse transcription kit (Promega) was used to generate cDNA. The MyTaq™ Mix master mix and appropriate primers targeting CAIX and VEGF were used to perform the qPCR reaction using a qPCR machine (Bio-Rad).

[6] = test system: CAIX and VEGF genes in Panc-1 cells; experiment: qPCR of hypoxia-response genes in Panc-1 cells; format: cell-based; conditions: hypoxic Panc-1 cells, 2 μM
Protocol: as §10, §11, §12

[7] = test system: VEGF gene in 786-O cells; experiment: qPCR of HIF-2-driven VEGF in 786-O cells; format: cell-based; conditions: 2 μM
Protocol: as §10, §11
as §12, with “A commercial reverse transcription kit (Promega) was used to generate cDNA. The MyTaq™ Mix master mix and appropriate primers targeting CAIX and VEGF were used to perform the qPCR reaction using a qPCR machine (Bio-Rad).” left out

T1 sequence (Q16665 238-349 limits assumed): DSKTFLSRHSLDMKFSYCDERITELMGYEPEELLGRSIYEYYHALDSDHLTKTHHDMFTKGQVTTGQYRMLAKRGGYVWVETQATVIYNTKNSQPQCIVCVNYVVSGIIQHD

Compound | Kd [1] [µM] | Kd [2] [µM] | other results
CC[C@H](C)[C@@H]1NC(=O)[C@H](CC(C)C)NC(=O)[C@H](CC(C)C)NC(=O)[C@H](CCCNC(=N)N)NC(=O)[C@H](CS)NC(=O)[C@H](Cc2ccccc2)NC1=O [cyclo-CRLLIF] (cyclo(CRLLIF); ring closure inferred) |  |  | Hill slope of binding curve to HIF-1α [1]: 1.22; Hill slope of binding curve to HIF-2α [2]: 1.45
CC[C@H](C)[C@@H]1NC(=O)[C@H](CC(C)C)NC(=O)[C@H](CCCNC(=N)N)NC(=O)[C@H](CS)NC(=O)[C@H](Cc2ccc(C(=O)c3ccccc3)cc2)NC(=O)[C@H]([C@@H](C)CC)NC1=O [(4-Bz)F, cyclo-CRLII(4-Bz)F] (cyclo([Bpa]CRLII)) |  |  | relative activity among the 9 most potent cyclo-CRLIIF derivatives on YFP expression [3]: most active
CC[C@H](C)[C@@H]1NC(=O)[C@H](C)NC(=O)[C@H](CC(C)C)NC(=O)[C@H](CCCNC(=N)N)NC(=O)[C@H](CS)NC(=O)[C@H](Cc2ccccc2)NC1=O [cyclo-CRLAIF] (cyclo(CRLAIF)) | 12.8 ± 3.6 | 61 ± 9.1 | 
CC[C@H](C)[C@@H]1NC(=O)[C@H](CC(C)C)NC(=O)[C@H](CCCNC(=N)N)NC(=O)[C@H](CS)NC(=O)[C@H](Cc2ccccc2)NC(=O)[C@H](C)NC1=O [cyclo-CRLIAF] | > 100 | > 100 | 
CC[C@H](C)[C@@H]1NC(=O)[C@H](CC(C)C)NC(=O)[C@H](CCCNC(=N)N)NC(=O)[C@H](C)NC(=O)[C@H](Cc2ccccc2)NC(=O)[C@H]([C@@H](C)CC)NC1=O [cyclo-ARLIIF] (cyclo(ARLIIF)) | > 100 | > 100 | 
CS(=O)(=O)c1ccc(Oc2cc(F)cc(C#N)c2)c2c1[C@H](O)[C@H](F)[C@@H]2F [belzutifan] |  |  | patients responded [4]: 49%
N#Cc1cc(F)cc(Oc2ccc(S(=O)(=O)C(F)F)c3c2CC(F)(F)[C@H]3O)c1 [PT2399, reference compound] |  |  | inhibition of hypoxia-driven expression of CAIX [5]: did not inhibit; inhibition of hypoxia-driven expression of VEGF [5]: did not inhibit; drop in CAIX transcription [6]: 23%; drop in VEGF transcription [6]: 53%; decrease in HIF-2-driven VEGF transcription [7]: 50%
CC[C@H](C)[C@@H]1NC(=O)[C@H](CC(C)C)NC(=O)[C@H](CCCNC(=N)N)NC(=O)[C@H](CS)NC(=O)[C@H](C)NC(=O)[C@H]([C@@H](C)CC)NC1=O [cyclo-CRLIIA] | 80.2 ± 27.3 | > 100 | 
CC[C@H](C)[C@@H]1NC(=O)[C@H](CC(C)C)NC(=O)[C@H](C)NC(=O)[C@H](CS)NC(=O)[C@H](Cc2ccccc2)NC(=O)[C@H]([C@@H](C)CC)NC1=O [cyclo-CALIIF] (cyclo(ALIIFC)) | 30.6 ± 0.3 | 12.5 ± 0.4 | 
CC[C@H](C)[C@@H]1NC(=O)[C@H](CC(C)C)NC(=O)[C@H](CCCCN)NC(=O)[C@H](CS)NC(=O)[C@H](Cc2ccccc2)NC(=O)[C@H]([C@@H](C)CC)NC1=O [cyclo-CKLIIF] (cyclo(CKLIIF)) |  |  | Hill slope of binding curve to HIF-1α [1]: 1.33; Hill slope of binding curve to HIF-2α [2]: 1.38
CC[C@H](C)[C@@H]1NC(=O)[C@H](C)NC(=O)[C@H](CCCNC(=N)N)NC(=O)[C@H](CS)NC(=O)[C@H](Cc2ccccc2)NC(=O)[C@H]([C@@H](C)CC)NC1=O [cyclo-CRAIIF] (cyclo(CRAIIF)) | 52.7 ± 5.6 | 52.3 ± 6.6 | 
CC[C@H](C)[C@@H]1NC(=O)[C@H](CC(C)C)NC(=O)[C@H](CCCNC(=N)N)NC(=O)[C@H](CS)NC(=O)[C@H](Cc2ccc([N+](=O)[O-])cc2)NC(=O)[C@H]([C@@H](C)CC)NC1=O [NO2, cyclo-CRLII(4-NO2)F] (cyclo(CRLII[Phe(4-NO2)])) | 3.3 ± 0.1 |  | relative activity among the 9 most potent cyclo-CRLIIF derivatives on YFP expression [3]: least active
